Experimental data reported in patent US5324832A, “Muscarinic antagonists” (priority 1991, dated 1994).
“Also recorded” adds a separate entry of the source. One block for each molecule: values may come before it.

What was measured:
muscarinic receptors = conditions: in words; cited from earlier work
[1] = tested on: m1 through m4 muscarinic receptors; experiment: Displacement of [3H]NMS from muscarinic receptors (m1-m4), subtype not singled out; assay type: binding; conditions: for displacement of [3H]NMS from the receptor / receptor subtype selectivity / affinity / potency at muscarinic receptors: in words; for receptor subtype selectivity: m1 versus m2 / among subtypes; for affinity / potency at muscarinic receptors: qualitative; for Ki: in the vicinity of, subtype not stated, read-out: Ki, inhibition of [3H]NMS binding
Source text: (§1) The analogues were screened in binding assays using membranes from cells or tissues containing primarily single subtypes of m1 through m4 muscarinic receptors. Transfected A9L cells were used as a source of homogeneous populations of m1, m3, and m4 receptors. See Jones, S. V.; Barker, J. L.; Buckley, N. J.; Bonner, T. I; Brann, M. R., Mol. Pharmacol., 1988, 34, 421, which is specifically incorporated by reference herein. Rat heart tissue was the source of m2 muscarinic receptors.
(§2) A crude membrane fraction was obtained as follows. Confluent cultures were rinsed three times with phosphate-buffered saline, and lysed in a solution of 2 mM Tris-HCl (pH 7.1) and 1 mM EDTA for 30 min at 2° C. The cells were harvested by scraping and homogenized on a Polytron (10 sec, 75% mix).
(§3) Nuclei were removed in a low speed centrifugation (400 × g, 5 min) and a crude membrane preparation was obtained by centrifugation of the supernatant at 50,000 × g for 20 min. The resulting pellet was resuspended in the lysis buffer and recentrifuged at 50,000 × g for 20 min. Membranes were stored frozen at -70° C. until needed.
(§4) The total volume was 1 mL.
(§5) The incubation was terminated by rapid filtration over GF/B filters using a Brandel cell harvester. The filters were washed three times with ice-cold 0.9% NaCl, equilibrated in scintillation counting fluid and counted on a Beckmann LS 5801 liquid scintillation counter at 47% efficiency.
(§6) It was routinely subtracted from the total counts.

m2 muscarinic receptors = molecular target: T1, m2 muscarinic receptors (Rattus norvegicus, UniProt P10980); experiment: Inhibition of [3H]NMS binding, membranes from rat heart (m2 receptors); conditions: for factor by which 29a and 32d differ in affinity at m2 receptors: 29a versus 32d
T1 construct: Rat heart tissue was the source of m2 muscarinic receptors; from tissue; host or cells: rat heart
T1 sequence (P10980 1-466): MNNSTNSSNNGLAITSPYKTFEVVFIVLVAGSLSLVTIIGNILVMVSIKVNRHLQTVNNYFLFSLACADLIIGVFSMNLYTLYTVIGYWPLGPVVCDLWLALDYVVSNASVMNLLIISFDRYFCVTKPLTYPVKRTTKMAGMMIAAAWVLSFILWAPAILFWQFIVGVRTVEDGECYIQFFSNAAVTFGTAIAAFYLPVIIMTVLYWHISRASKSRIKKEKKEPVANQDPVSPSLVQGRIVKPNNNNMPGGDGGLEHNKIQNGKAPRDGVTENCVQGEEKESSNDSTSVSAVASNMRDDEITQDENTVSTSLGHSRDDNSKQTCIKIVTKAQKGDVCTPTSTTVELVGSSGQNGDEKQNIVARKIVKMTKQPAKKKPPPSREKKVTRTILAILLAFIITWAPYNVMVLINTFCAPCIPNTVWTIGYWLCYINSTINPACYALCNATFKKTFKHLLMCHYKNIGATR
Source text: as §1, §2, §3, §4, §5, §6

m1 muscarinic receptors [2] = molecular target: T2, m1 muscarinic receptors (Rattus norvegicus, UniProt P08482); experiment: Inhibition of [3H]NMS binding, membranes of transfected A9L cells expressing m1 receptors; design: expressed in transfected cells; host or cells: A9L cells (obtained from Dr. M. Brann, NIH); conditions: for selectivity ratio m1 versus m2 receptors: in favor of m1 versus m2 receptors; for factor by which 29a and 32d differ in affinity at m1 receptors: 29a versus 32d
T2 sequence (P08482 1-460): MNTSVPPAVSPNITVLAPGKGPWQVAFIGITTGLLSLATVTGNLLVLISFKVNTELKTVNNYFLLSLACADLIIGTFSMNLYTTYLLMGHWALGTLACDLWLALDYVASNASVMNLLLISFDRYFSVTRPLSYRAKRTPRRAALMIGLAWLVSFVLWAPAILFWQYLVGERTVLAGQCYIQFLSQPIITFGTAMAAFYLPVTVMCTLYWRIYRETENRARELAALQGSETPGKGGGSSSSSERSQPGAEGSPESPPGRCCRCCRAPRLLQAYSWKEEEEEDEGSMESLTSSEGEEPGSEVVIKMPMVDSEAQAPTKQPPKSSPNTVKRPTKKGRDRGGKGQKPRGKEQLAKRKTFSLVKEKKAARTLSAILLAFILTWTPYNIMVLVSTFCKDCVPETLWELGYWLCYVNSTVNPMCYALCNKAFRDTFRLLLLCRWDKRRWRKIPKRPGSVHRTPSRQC
Protocol: The analogues were screened in binding assays using membranes from cells or tissues containing primarily single subtypes of m1 through m4 muscarinic receptors. Transfected A9L cells were used as a source of homogeneous populations of m1, m3, and m4 receptors. […] Rat heart tissue was the source of m2 muscarinic receptors.
A crude membrane fraction was obtained as follows. Confluent cultures were rinsed three times with phosphate-buffered saline, and lysed in a solution of 2 mM Tris-HCl (pH 7.1) and 1 mM EDTA for 30 min at 2° C.
as §3, §4
The incubation was terminated by rapid filtration over GF/B filters using a Brandel cell harvester.
as §6

m1 muscarinic receptors [3] = molecular target: T2, m1 muscarinic receptors; assay type: binding; conditions: 1.0 mM compound 26, in words
Protocol: To assay for irreversible inhibition in rat brain membranes, Scatchard analyses before and after treatment of the membranes with 26 were compared. Even a very […].
Aliquots of brain membranes were incubated with 1.0 mM of freshly dissolved 26 in phosphate-buffered saline (pH 8.0) for 60 min at room temperature, then centrifuged at 15,000 rpm for 10 min.
The resulting pellet was resuspended in 25 mL of fresh phosphate-buffered saline (pH 7.2) and centrifuged as above.

[4] = Storage stability of the salt; assay type: physicochemical; conditions: -20 ° C.; dihydrochloride salt
Protocol: Compound 25 (110 mg, 0.22 mmol) was refluxed for 1 h with thionyl chloride (1 mL) in chloroform (4 mL). The volatile material was removed in vacuo, and the residue was basified with aqueous Na2 CO3 (pH 10) and washed immediately with ether to completely remove the non polar impurity (TLC CHCl3 /CH3 OH/NH4 OH: 9/1/0.1, Rf 0.4). The product was extracted into CHCl3 from the cold aqueous phase and the combined CHCl3 layers were concentrated in vacuo and acidified using ether/HCl. The precipitate was dried in vacuo to yield 29 mg of 26 (25%) as a white solid: mp 188°-190° C.; 1H NMR (D20, HCl salt) δ 3.00-4.00 (m, 14 H), 7.50-7.70 (m, 3 H), 7.70-7.90 (m, 3 H), 8.40 (s, 1 H); MS (CI/NH3) m/e 400 (MH+), 212 (base), 364, 338. […] The salt was stable upon storage at -20 ° C. for at least 6 months.

[5] = in words, versus propargyl derivative 22

SMILES: CCN(CC)CCCCC1CCN(CC(=O)N2c3ccccc3C(=O)Nc3cccnc32)CC1 [AQ-RA 741]
muscarinic receptor selectivity (literature) (muscarinic receptors): selective for M2 receptors

SMILES: CSc1ccc2c(c1)C(=O)Nc1cccnc1N2C(=O)CN1CCN(C)CC1 [Compound 11a]
displacement of [3H]NMS from the receptor [1]: detectable displacement of [^3 H]NMS

SMILES: Cl.Cl.O=C1Nc2cccnc2N(C(=O)CN2CCN(CCCl)CC2)c2ccccc21 [Compound 26, 5,11-Dihydro-11-[(4-[2-chloroethyl]-1-piperazinyl)acetyl]-6H-pyrido[2,3-b][1,4]benzodiazepine-6-one dihydrochloride]
affinity / potency at muscarinic receptors [1]: high binding affinity
receptor subtype selectivity [1]: retained selectivity for m1 receptors
change in Kd and Bmax of [3H]NMS after preincubation (m1 muscarinic receptors [3]): no change in the Kd and Bmax values
irreversible inhibition of m1 receptors (m1 muscarinic receptors [3]; dihydrochloride): not an irreversible inhibitor of m1 receptors; also recorded: lack of irreversible inhibition
stability of the salt upon storage [4]: at least 6 months
selectivity ratio m1 versus m2 receptors (m1 muscarinic receptors [2]): 4.4 fold

SMILES: CN1CCN(CC(=O)N2c3cc(CO)ccc3C(=O)Nc3cccnc32)CC1 [Compound 16, 5,11-Dihydro-9-hydroxymethyl-11-[(4-methyl-1-piperazinyl)acetyl]-6H-pyrido[2,3-b] [1,4]benzodiazepine-6-one]
displacement of [3H]NMS from the receptor [1]: detectable displacement of [^3 H]NMS

SMILES: CCN1C(=O)c2ccccc2N(C(=O)CN2CCN(C)CC2)c2ncccc21 [Compound 17a, 5-Ethyl-11-hydro-[(4-methyl-1-piperazinyl)acetyl]-6H-pyrido[2,3-b][1,4]-benzodiazepine-6-one]
affinity / potency at muscarinic receptors [1]: low affinity

SMILES: COc1ccccc1CNCCCCCCNCCCCCCCCNCCCCCCNCc1ccccc1OC [methoctramine]
muscarinic receptor selectivity (literature) (muscarinic receptors): m2-selective muscarinic antagonist

SMILES: CN1CCN(CC(=O)N2c3ccccc3C(=O)N(CCCCCCC#N)c3cccnc32)CC1 [Compound 17b]
affinity / potency at muscarinic receptors [1]: low affinity

SMILES: NCCCCCCCCCN1CCN(CC(=O)N2c3ccccc3C(=O)Nc3cccnc32)CC1 [Compound 34g]
affinity / potency at muscarinic receptors [1]: higher affinities than the corresponding derivatives with the small neutral acetylamino terminal group (35g and 35h)

SMILES: Cc1scc2c1N(C(=O)CN1CCN(C)CC1)c1ccccc1NC2=O [telenzepine]
muscarinic receptor selectivity (literature) (muscarinic receptors): preserve selectivity for m1 receptors
potency as muscarinic antagonist relative to pirenzepine (literature) (muscarinic receptors): more potent antagonist
selectivity ratio / factor for m1 receptors (m1 muscarinic receptors [2]; m1 versus m2 receptors): 25

SMILES: Cc1scc2c1N(C(=O)CN1CCN(CCCCCCCCCCN)CC1)c1ccccc1NC2=O [Compound 40, n=10, 4,9-Dihydro-3-methyl-4-[[4-(10-aminodecyl)-1-piperazinyl]-acetyl]-10H-thieno[3,4-b][1,5]benzodiazepin-10-one]
Ki (m1 muscarinic receptors [2]; radioligand binding assays, read-out: affinity for m1 receptors (Ki)): 2.39 nM

Second part, led by results:

receptor subtype selectivity [1]: non-selective for m1 versus m2 receptors
SMILES: O=C1Nc2cccnc2N(C(=O)CN2CCN(Cc3ccccc3)CC2)c2ccccc21 [Compound 23, 5,11-Dihydro-11-[(4-benzyl-1-piperazinyl)acetyl]-6H-pyrido[2,3-b] [1,4]benzodiazepine-6-one]
affinity at m2 muscarinic receptors relative to 22 (m2 muscarinic receptors; [5]): greater affinity at m1 and m2 muscarinic receptors
affinity at m1 muscarinic receptors relative to 22 (m1 muscarinic receptors [2]; [5]): greater affinity at m1 and m2 muscarinic receptors

Kd (m2 muscarinic receptors; m2): < 20 nM
receptor subtype selectivity [1]: non-selective
Kd (m1 muscarinic receptors [2]; m1): < 20 nM
SMILES: NCCCCCCCCCCN1CCN(CC(=O)N2c3ccccc3C(=O)Nc3cccnc32)CC1 [Compound 34h, 5,11-Dihydro-11-[(4-[10-aminodecyl]-1-piperazinyl)acetyl]-6H-pyrido[2,3-b][1,4]-benzodiazepine-6-one]
affinity / potency at muscarinic receptors [1]: higher affinities than the corresponding derivatives with the small neutral acetylamino terminal group (35g and 35h); also recorded: most potent in the series of primary amines

factor by which 29a and 32d differ in affinity at m2 receptors (m2 muscarinic receptors; m2): 280
factor by which 29a and 32d differ in affinity at m1 receptors (m1 muscarinic receptors [2]; m1): 360
SMILES: CC(C)(C)OC(=O)NCCCCCCN1CCN(CC(=O)N2c3ccccc3C(=O)Nc3cccnc32)CC1 [Compound 32d]
affinity / potency at muscarinic receptors [1]: more potent than the corresponding free amines (34)

Ki [1]: ~1000 nM
SMILES: CC(=O)NCCN1CCN(CC(=O)N2c3ccccc3C(=O)Nc3cccnc32)CC1 [Compound 28]

Ki [1]: ~1000 nM
receptor subtype selectivity [1]: non-selective
SMILES: C#CCN1CCN(CC(=O)N2c3ccccc3C(=O)Nc3cccnc32)CC1 [Compound 22, 5,11-Dihydro-11-[(4-propargyl-1-piperazinyl)acetyl]-6H-pyrido[2,3-b][1,4]benzodiazepine-6-one]

Ki [1]: ~1000 nM
SMILES: NCCN1CCN(CC(=O)N2c3ccccc3C(=O)Nc3cccnc32)CC1 [Compound 27, 5,11-Dihydro-11-[(4-[2-aminoethyl]-1-piperazinyl)acetyl]-6H-pyrido[2,3-b][1,4]benzodiazepine-6-one]

factor by which 29a and 32d differ in affinity at m2 receptors (m2 muscarinic receptors; m2): 280
affinity / potency at muscarinic receptors [1]: inactivity
factor by which 29a and 32d differ in affinity at m1 receptors (m1 muscarinic receptors [2]; m1): 360
SMILES: CC(C)(C)OC(=O)NCCC(=O)NCCN1CCN(CC(=O)N2c3ccccc3C(=O)Nc3cccnc32)CC1 [Compound 29a]

Ki [1]: ~1000 nM
SMILES: O=C1Nc2cccnc2N(C(=O)CN2CCN(CCO)CC2)c2ccccc21 [Compound 25, 5,11-Dihydro-11-[(4-[2-hydroxyethyl]-1-piperazinyl)acetyl]-6H-pyrido[2,3-b][1,4]benzodiazepine-6-one]

selectivity ratio m1 versus m2 receptors (m1 muscarinic receptors [2]): 5 fold
SMILES: NCCCCCN1CCN(CC(=O)N2c3ccccc3C(=O)Nc3cccnc32)CC1 [Compound 34c]
